Marks after values point to notes of the source that are not given here. Square brackets hold non-standard residues; d marks the D form. Ends that are not written are not given here. Peptide text beside a SMILES is read from it. Bip = N[C@@H](Cc1ccc(-c2ccccc2)cc1)C(=O)O; Aib = CC(C)(N)C(=O)O
Experiments:
[1] = system: wild-type HEK293 cells; assay: DMR assay in wild-type HEK293 cells (control); format: cell-based, Human; conditions: mean ± SEM, duplicate
Protocol: (§1) HEK293 cells stably expressing the murine NPSR receptor (HEK293mNPSR) were described previously.3 Wild‐type HEK293 cells were used as a control. Cells were maintained in Dulbecco's Medium (DMEM) supplemented with 10% fetal bovine serum, 100 U/mL penicillin, 100 μg/mL streptomycin and, 2 mmol L^−1 L‐glutamine. The medium was complemented with 100 mg/L hygromycin for HEK293mNPSR. Cells were cultured at 37°C in 5% CO2 humidified air.
(§2) Confluent cells were subcultured using trypsin/EDTA and used for experiments. Cells were seeded at a density of 20 000 cells/well in 30 μL into fibronectin‐coated Enspire™‐LC 384‐wells plates and cultured for 20 hours to form a confluent monolayer. On the day of the experiment, cells were manually washed twice and maintained with assay buffer for 90 minutes before DMR experiments. DMR was monitored in real time with a temporal resolution of 22 seconds throughout the assay. Experiments were performed at 37°C, using an EnSight Multimode Plate Reader (PerkinElmer), that uses the Corning® Epic® Technology to measure the DMR signal. Agonism protocol: a 5‐minute baseline was first established, followed by adding compounds manually in a volume of 10 μL and recording compounds‐triggered DMR signal for 60 minute. Antagonism protocol: antagonists were added manually 25 minute before reading the 5‐minute baseline. After baseline establishment, NPS was injected and DMR signal was recorded for 60 minute. Antagonist properties of ligands were measured by assessing the concentration‐response curve to NPS in the absence and in presence of a fixed concentration of compound. FR900359 was added 60 minute before NPS, rolipram was incubated for 90 minute before NPS, while PTX was added 24 hours before NPS. Maximum picometer (pm) modifications (peak measured at 60 minute time point) were used to determine agonist response after baseline normalization.
(§3) All data were analyzed using Graph Pad Prism 6.0 (La Jolla, CA, USA). Concentration‐response curves were fitted using the four parameters log logistic equation. Data are expressed as mean ± SEM of n experiments performed in duplicate and were analyzed using one‐ or two‐way analysis of variance (ANOVA) followed by Dunnett's or Tukey's test for multiple comparisons wherever appropriate. Agonist potency was expressed as pEC50, which is the negative logarithm to base 10 of the agonist molar concentration that produces 50% of the maximal possible effect of that agonist. Antagonists potencies were assayed at single concentrations against the concentration‐response curve to NPS and their pA2 was derived using the following equation: pA2 = log(CR − 1) − log[A], where CR is the ratio between agonist potency (EC50) in the presence and in absence of antagonist and [A] is the molar concentration of antagonist.

[2] = biological target: T1, murine NPSR (Mus musculus, UniProt Q8BZP8); assay: Dynamic mass redistribution (DMR) assay in HEK293mNPSR cells; format: cell-based; conditions: for DMR response, HEK293mNPSR pm ± SEM: peak at 60 minute, mean ± SEM, duplicate; for intrinsic activity α ± SEM / Agonist potency pEC50 (CL95%) / EC50: DMR; for Agonist potency pEC50 (CL95%) / EC50: agonism protocol, 60 minute recording, at least three experiments in duplicate; for fold less potent than NPS (DMR): agonist potency relative to NPS; for Effect of inhibitor on NPS-evoked DMR response: FR900359 1 μmol L^−1 (60 minute before NPS), PTX 100 ng mL^−1 (24 hours before), rolipram 10 μmol L^−1 (90 minute before); for EC50: read-out: Agonist potency pEC50 (CL95%) (converted)
T1 construct: expressed in transfected cells
T1 sequence (Q8BZP8 1-371): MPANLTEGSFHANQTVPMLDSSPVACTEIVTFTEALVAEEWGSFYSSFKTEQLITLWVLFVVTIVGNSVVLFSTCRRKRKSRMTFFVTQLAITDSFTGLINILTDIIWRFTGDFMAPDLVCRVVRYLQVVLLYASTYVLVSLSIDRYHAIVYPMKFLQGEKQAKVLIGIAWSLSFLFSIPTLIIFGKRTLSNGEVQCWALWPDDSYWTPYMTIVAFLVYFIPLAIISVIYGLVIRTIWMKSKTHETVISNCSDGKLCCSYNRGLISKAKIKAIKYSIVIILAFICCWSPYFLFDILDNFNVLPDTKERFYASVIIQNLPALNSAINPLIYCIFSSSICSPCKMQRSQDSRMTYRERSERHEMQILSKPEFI
Protocol: as §1
as §2, with “Cells were seeded at a density of 20 000 cells/well in 30 μL into fibronectin‐coated Enspire™‐LC 384‐wells plates and cultured for 20 hours to form a confluent monolayer.” left out
as §3, with “Agonist potency was expressed as pEC50, which is the negative logarithm to base 10 of the agonist molar concentration that produces 50% of the maximal possible effect of that agonist.” left out

[3] = ligand 10 μmol L^−1, 37°C, peak at 60 minute after baseline normalization
[4] = ligand 1 μmol L^−1, 37°C, peak at 60 minute

| Compound | intrinsic activity α ± SEM ([2]; relative to NPS = 1.00, SEM) | DMR response, HEK293mNPSR pm ± SEM ([2]; ligand 10 μmol L^−1, 37°C) | fold less potent than NPS (DMR) [2] | DMR response, HEK293 pm ± SEM [1, 3] | further results |
| --- | --- | --- | --- | --- | --- |
| C[N+](C)(C)CCOC(N)=O [Carbachol, reference compound] |  |  |  |  | DMR response, HEK293 pm ± SEM ([1]; ligand 100 μmol L^−1, 37°C, peak at 60 minute): 480 ± 51 ^a pm; DMR response, HEK293mNPSR pm ± SEM ([2]; ligand 100 μmol L^−1, 37°C): 393 ± 9 ^a pm |
| NPS(1‐6): NPS fragment (SFRNGV; Neuropeptide S; UniProt P0C0P6 70-75, looked up, fragment) |  | 356 ± 48 ^a pm |  | 25 ± 10 pm | Agonist potency pEC50 (CL95%) [2]: crc incomplete; intrinsic activity α ± SEM ([2]; relative to NPS = 1.00): crc incomplete |
| SFRNGVGTGM [NPS(1‐10)] | 1.09 ± 0.14 | 683 ± 90 ^a pm | 100 fold | 27 ± 6 pm | fold less potent than NPS (DMR) ([2]; listed as NPS (1‐10)): approximately 100 fold |
| Pertussis Toxin [PTX] |  |  |  |  | Effect of inhibitor on NPS-evoked DMR response [2]: did not modify NPS‐evoked DMR response |
| SFRNGVGTGMKKTSFQRAKS [NPS, Neuropeptide S] |  |  |  |  | EC50 [2]: 0.00166 µM |
| [D‐Val^5]NPS |  |  |  |  | Agonist potency pEC50 (CL95%) [2]: Inactive; intrinsic activity α ± SEM ([2]; relative to NPS = 1.00): Inactive |
| COc1ccc(C2CNC(=O)C2)cc1OC1CCCC1 (stereo not shown) [rolipram, reference compound] |  |  |  |  | Effect of inhibitor on NPS-evoked DMR response [2]: did not change NPS effects |
| CSCC[C@H](NC(=O)CNC(=O)[C@@H](NC(=O)CNC(=O)[C@@H](NC(=O)C(C)(C)NC(=O)[C@H](CC(N)=O)NC(=O)[C@H](CCCNC(=N)N)NC(=O)[C@H](Cc1ccccc1)NC(=O)[C@@H](N)CO)C(C)C)[C@@H](C)O)C(=O)N[C@@H](CCCCN)C(=O)N[C@@H](CCCCN)C(=O)N[C@H](C(=O)N[C@@H](CO)C(=O)N[C@@H](Cc1ccccc1)C(=O)N[C@@H](CCC(N)=O)C(=O)N[C@@H](CCCNC(=N)N)C(=O)N[C@@H](C)C(=O)N[C@@H](CCCCN)C(=O)N[C@@H](CO)C(=O)O)[C@@H](C)O [[Aib^5]NPS] (H-SFRN[Aib]VGTGMKKTSFQRAKS-OH) |  |  |  |  | EC50 [2]: 0.145 µM |
| FRNGVGTGMKKTSFQRAKS [NPS(2‐20)] | 1.14 ± 0.05 | 782 ± 46 ^a pm | approximately 30 fold | 70 ± 10 pm |  |
| NPS(3‐20): NPS fragment (RNGVGTGMKKTSFQRAKS; Neuropeptide S; UniProt P0C0P6 72-89, looked up, fragment) |  | 675 ± 54 ^a pm |  | 166 ± 14 ^a pm | DMR response, HEK293 pm ± SEM [1, 4]: 41 ± 14 pm; Agonist potency pEC50 (CL95%) [2]: crc incomplete; intrinsic activity α ± SEM ([2]; relative to NPS = 1.00): crc incomplete; DMR response, HEK293mNPSR pm ± SEM ([2]; ligand 1 μmol L^−1, 37°C): 315 ± 17 ^a pm |

Continued, in another order:

| intrinsic activity α ± SEM ([2]; relative to NPS = 1.00, SEM) | DMR response, HEK293mNPSR pm ± SEM ([2]; ligand 10 μmol L^−1, 37°C) | fold less potent than NPS (DMR) [2] | Compound | DMR response, HEK293 pm ± SEM [1, 3] | further results |
| --- | --- | --- | --- | --- | --- |
| 1.03 ± 0.03 | 692 ± 15 ^a pm |  | SFRNGVATGMKKTSFQRAKS [[Ala^7]NPS] | 115 ± 33 pm |  |
| 1.09 ± 0.04 | 686 ± 50 ^a pm | approximately 30 fold | CSCC[C@H](NC(=O)CNC(=O)[C@@H](NC(=O)CNC(=O)[C@@H](NC(=O)[C@@H](C)NC(=O)[C@H](CC(N)=O)NC(=O)[C@H](CCCNC(=N)N)NC(=O)[C@H](Cc1ccccc1)NC(=O)[C@@H](N)CO)C(C)C)[C@@H](C)O)C(=O)N[C@@H](CCCCN)C(=O)N[C@@H](CCCCN)C(=O)N[C@H](C(=O)N[C@@H](CO)C(=O)N[C@@H](Cc1ccccc1)C(=O)N[C@@H](CCC(N)=O)C(=O)N[C@@H](CCCNC(=N)N)C(=O)N[C@@H](C)C(=O)N[C@@H](CCCCN)C(=O)N[C@@H](CO)C(=O)O)[C@@H](C)O [[D‐Ala^5]NPS] (H-SFRN[dA]VGTGMKKTSFQRAKS-OH; N-terminus and C-terminus assumed) | 55 ± 14 pm |  |
| 1.01 ± 0.04 | 761 ± 60 ^a pm | approximately 30 fold | CSCC[C@H](NC(=O)CNC(=O)[C@@H](NC(=O)CNC(=O)[C@@H](NC(=O)CNC(=O)[C@H](CC(N)=O)NC(=O)[C@H](CCCNC(=N)N)NC(=O)[C@H](Cc1ccc(-c2ccccc2)cc1)NC(=O)[C@@H](N)CO)C(C)C)[C@@H](C)O)C(=O)N[C@@H](CCCCN)C(=O)N[C@@H](CCCCN)C(=O)N[C@H](C(=O)N[C@@H](CO)C(=O)N[C@@H](Cc1ccccc1)C(=O)N[C@@H](CCC(N)=O)C(=O)N[C@@H](CCCNC(=N)N)C(=O)N[C@@H](C)C(=O)N[C@@H](CCCCN)C(=O)N[C@@H](CO)C(=O)O)[C@@H](C)O [[Bip^2]NPS] (H-S[Bip]RNGVGTGMKKTSFQRAKS-OH; N-terminus and C-terminus assumed) | 191 ± 30 ^a pm | DMR response, HEK293 pm ± SEM [1, 4]: 47 ± 16 pm; DMR response, HEK293mNPSR pm ± SEM ([2]; ligand 1 μmol L^−1, 37°C): 577 ± 2 ^a pm |

Source: PMC6277375, “Pharmacological profile of the neuropeptide S receptor: Dynamic mass redistribution studies” (Pharmacology Research & Perspectives, 2018)
